Data from ChEMBL document CHEMBL1157539, “Thousands of chemical starting points for antimalarial lead identification” (Nature, 2010).

system: Plasmodium falciparum; test: GSK_TCMDC: Inhibition of Plasmodium falciparum 3D7 in whole erythrocytes, using parasite LDH activity as an index of growth.; format: functional, organism-based; conditions: Plasmodium falciparum, 3D7

| SMILES | XC50 [nM] |
| --- | --- |
| O=C(NCc1ccco1)c1ccc(S(=O)(=O)c2ccc(Cl)cc2)cc1 | 448 |
| CC(C)C[C@H](NC(=O)c1cc2ccccc2s1)C(=O)N[C@H]1CCN(Cc2ccc(OCCN3CCNCC3)c3ccccc23)C1 | 1420 |
| O=C(/C=C/c1ccc(Cl)c(Cl)c1)NCCCCCN1CCCN(C(=O)Nc2cc(Cl)cc(Cl)c2)CC1 | 791 |
| CCn1ccc2c(N3CCCCS3(=O)=O)cc(C(=O)N[C@@H](Cc3ccccc3)[C@H](O)CNC3CCCCC3)cc21 | 122 |
| c1ccc(-c2csc(Nc3nc4cc5c(cc4s3)OCO5)n2)nc1 | 579 |
| Cc1[nH]cnc1-c1cccc(NC(=O)c2cc3ccccc3s2)c1 | 210 |
| CCNC(=O)N1CCc2ccc(Oc3nc(NCc4ccccc4OC)ncc3C)cc2CC1 | 1070 |
| COc1ccc(C2CC(c3cccs3)=NN2C(=O)CNc2cccc(C#N)c2)cc1OC (stereo unspecified) | 1450 |
| Cc1cccc2nc(-c3ccc(-c4ccc(CN5CCCC(O)C5)cc4)s3)[nH]c12 (stereo unspecified) | 830 |
| COc1ccc(NC(=O)[C@H](CC(C)C)Nc2cc(C)nc(NCCc3ccc(F)cc3)n2)cc1 | 925 |
| Cc1cc(C(=O)Nc2ccc3c(c2)CCN3C2CCN(Cc3csc4ccccc34)C2)no1 (stereo unspecified) | 119 |
| O=C(Cc1cn(-c2ccccc2)nc1-c1ccc(Cl)cc1)Nc1nccs1 | 1200 |
| CCc1cccc2c(C#N)cn(CC(=O)Nc3ccc(OC)cc3)c12 | 772 |
| O=C(Nc1cccc(-c2cc3ccccc3[nH]2)c1)C1CCN(Cc2ccccc2O)CC1 | 938 |
| O=c1cc(NCCCNC(CNCCc2ccccc2)c2cc(Br)cc(Br)c2)[nH]c2ccccc12 (stereo unspecified) | 864 |
| O=C(Nc1ccc(Cl)c(Cl)c1)Nc1cc(C(F)(F)F)ccc1Cl | 1440 |
| O=C(NC1CCC(N2CCC3(CC2)C(=O)NCN3c2ccccc2)CC1)c1cc2ccccc2[nH]1 (stereo unspecified) | 679 |
| CCCCCCNC(=O)c1nn(CCN2CCC(N3CCCC3)CC2)cc1-c1ccc(Cl)c(Cl)c1 | 733 |
| COc1cc2c(cc1OC)CN(CCCCc1ccc(NC(=O)c3cc(Cl)cc(Cl)c3)cc1)CC2 | 1200 |
| N[C@@H](CCN1CCC(c2cccc(O)c2)CC1)Cc1ccc(F)c(F)c1 | 1110 |
| Cc1cc(-c2ccc3c(c2)CCN(CCC2CCC(NC(=O)/C=C/c4cccc(F)c4)CC2)CC3)on1 (stereo unspecified) | 746 |
| Fc1ccc(Nc2ccnc3cc(-c4ccc(CN5CCOCC5)o4)ccc23)c(Cl)c1 | 756 |
| O=C(NCCCCCN1CCC(c2ccc(O)cc2)CC1)c1ccc(-c2ccccc2)cc1 | 929 |
| CC1CCCN1Cc1ccc(-c2ccc3c(=O)cc(CCc4cccc(F)c4F)n(CC(=O)N(C)Cc4ccc(-c5ccc(C(F)(F)F)cc5)cc4)c3n2)cc1 (stereo unspecified) | 823 |
| COCc1nc(-c2ccccc2)nc(N2CCN(C(=O)NC(C)C)CC2)c1Cc1ccccc1F | 1000 |
| COc1ccccc1CNc1ccnc(N2CC(Oc3ccc(F)cc3)C2)n1 | 850 |

| SMILES | XC50 [nM] |
| --- | --- |
| N=c1cc(C=Cc2ccc(O)cc2)[nH]c2ccccc12 | 993 |
| COc1cc(NC(=O)Nc2ccnc3ccccc23)cc(OC)c1 | 469 |
| Cc1cccc2nc(-c3ccc(-c4cccc(NC(=O)C(C)CN(C)C)c4)s3)[nH]c12 (stereo unspecified) | 724 |
| O=C(NC(Nc1ccc([N+](=O)[O-])cc1)C(Cl)(Cl)Cl)c1cccc(Cl)c1 (stereo unspecified) | 863 |
| Cc1c(C)c2c(c(C)c1O)CC[C@@](C)(C(=O)N1CCC(CCN3CCC(c4c[nH]c5ccccc45)CC3)CC1)O2 | 666 |
| CCOc1ccc(Cc2c(C)nc3nc(N)nc(N)c3c2C)cc1 | 1060 |
| CC(CCON1C(N)=NC(N)=NC1(C)C)c1ccc(Cl)c(Cl)c1 (stereo unspecified) | 3.2 |
| CCNc1cc(C(=O)N[C@@H](Cc2ccccc2)[C@H](O)CNC(C)Cc2cccc(Cl)c2)cc(N2CCCCS2(=O)=O)c1 (stereo partly specified) | 496 |
| CC(Cc1ccc(C(C)(C)C)cc1)NCC(O)c1ccccc1 (stereo unspecified) | 1810 |
| O=C(CSc1nc2ccccc2c(=O)n1C1CC1)Nc1cc(C(F)(F)F)ccc1Cl | 108 |
| O=C(Nc1cccc(CN2CCCN(Cc3ncc[nH]3)CC2)c1)c1ccc(-c2ccccc2)cc1 | 654 |
| CCOC(=O)C(C#N)NC(=O)C=Cc1ccccc1 (stereo unspecified) | 804 |
| COc1ccc2nccc([C@@H](O)CN3CCC(NC(=O)/C=C/c4cccc(C)c4)CC3)c2c1 | 1250 |
| COCCOc1cc(C)c(C2CCN(CCCCNC(=O)c3ccc(NC(=O)c4ccc(Cl)cc4)cc3)CC2)cc1C | 951 |
| COc1ccccc1COc1c(C)nc(N)nc1N | 706 |
| NC1=NC(CCc2ccccc2)N(c2ccccc2)C(N)=N1 (stereo unspecified) | 77.1 |
| Cc1cccc2sc(N(CCCn3ccnc3)C(=O)C=Cc3cccs3)nc12 | 1280 |
| Clc1cccc(C=NNc2nc(=Nc3ccccc3)[nH]c(=Nc3ccccc3)[nH]2)c1 | 844 |
| FC(F)(F)COc1c(CCNCCCCNCCc2ccc3ccccc3c2OCC(F)(F)F)ccc2ccccc12 | 348 |
| O=C(Nc1ccc(Oc2ccc(OC(F)(F)F)cc2)cc1)c1ccco1 | 1130 |
| COc1cc(NCCCCNc2ccc(Cl)c(Cl)c2)nc2ccccc12 | 527 |
| O=S(=O)(c1c(Cl)cc(Cl)cc1Cl)N1CCCCC(c2ccc(F)c(F)c2)=N1 | 594 |
| O=C(C=Cc1ccc(Cl)c(Cl)c1)NCCCCCN1CCC(CCNC(=O)c2ccc3c(c2)OCO3)CC1 | 693 |
| CC(=O)Nc1cccc(C(=O)Nc2cccc(-c3cccc(-c4nc5cc(F)ccc5[nH]4)c3)c2)c1 | 549 |
| CC(CON1C(N)=NC(N)=NC1(C)C)c1ccc(Cl)cc1Cl (stereo unspecified) | 3.2 |
| CCN(CC)CCCCOc1ccc2c(c1)C(=O)c1cc(OCCCCN(CC)CC)ccc1-2 | 759 |

| SMILES | XC50 [nM] |
| --- | --- |
| CC(=O)c1ccc(-n2ccnc2)cc1 | 852 |
| COc1c(C2CCN(CCCCNC(=O)c3cc(-c4ccc(Cl)cc4)oc3C)CC2)ccc2c1CCCC2 | 882 |
| Cc1ccc(Nc2nc3cc(N(C)c4ccnc(Nc5cccc(CCS(C)(=O)=O)c5)n4)ccc3n2C)cc1 | 339 |
| CC1CCN(c2nc(C(=O)Nc3cccc4c3CCCC4)c(C(C)C)s2)CC1 | 1040 |
| CCCCOc1ccc(N2C(N)=NC(N)=NC2(C)C)cc1 | 215 |
| CN1CCN(c2cc(NC(=O)c3ccc(-c4ccc(Cl)cc4)cc3)ccc2Cl)CC1 | 613 |
| Cc1nc2ccc(-c3nc4cc(N)ccc4[nH]3)cc2[nH]1 | 233 |
| O=C(Nc1ccc2c(c1)CCC2)N[C@H]1CCN(CCCCCNC(=O)C2CC2c2ccc(Cl)c(Cl)c2)C1 (stereo partly specified) | 1080 |
| CC(Cc1ccc(CNC(=O)c2ccc(CC(C)NCCc3cccc(Cl)c3)cc2)cc1)NCCc1cccc(Cl)c1 (stereo unspecified) | 696 |
| CC(=O)N(C)C1CCN(Cc2cccc(-c3ccc(-c4nc5cc(C(F)(F)F)ccc5[nH]4)cc3)c2)C1 (stereo unspecified) | 563 |
| CCCNCc1ccc(-c2ccc(CN(CCOC)C(=O)c3ccco3)cc2)nc1 | 997 |
| Cc1ccc(NC(=O)c2ccc(CN3CCCN(CC4CCCCC4)CC3)cc2)cc1F | 290 |
| O=C(CNC(=O)c1ccc(O)cc1)Nc1ccc(-c2cccc(-c3nc4cc(C(F)(F)F)ccc4[nH]3)c2)cc1 | 859 |
| CCCC(CNCc1cccc(OCC)c1)CNc1cc(=O)c2ccccc2[nH]1 (stereo unspecified) | 855 |
| OC(CNCc1ccccc1OCc1ccccc1)c1cccc(Br)c1 (stereo unspecified) | 643 |
| Cc1ccc(Cl)c2sc(N3CCN(C(=O)c4ccc([N+](=O)[O-])o4)CC3)nc12 | 325 |
| Nc1nccc2ccc(-c3cccc(OCc4ccccc4)c3)cc12 | 289 |
| OC(CNCc1cccc(Oc2ccc(Cl)cc2)c1)c1cccc(C(F)(F)F)c1 (stereo unspecified) | 971 |
| Cc1[nH]c(C)c(-c2ccc(-c3cccc(OC(F)(F)F)c3)nc2)c(=O)c1Cl | 74.5 |
| Cc1nc(C)c(-c2ccc(Oc3ccc([S+](C)[O-])cc3)cc2)c(O)c1Br (stereo unspecified) | 765 |
| CC(C)(C)C1CCC(C(=O)c2ccc3ccccc3c2O)CC1 (stereo unspecified) | 751 |
| CN(C)c1cc2c(Nc3ccc4nc(Cc5ccccc5)[nH]c4c3)ncnc2cn1 [GW301888X] | 1140 |
| Cc1cc(NC(=O)Nc2ccc(Cl)cc2F)c2ccccc2n1 | 547 |
| O=C(Nc1ccc(OC2CCN(Cc3ccccc3)C2)c(Cl)c1)c1ccco1 (stereo unspecified) | 406 |
| OCCCCCCNc1ccnc2[nH]c3ccc(I)cc3c12 | 1070 |
| Cc1ccccc1C1CCN(C2CCC(NC(=O)c3cc(-c4ccc(Cl)cc4)cs3)CC2)CC1 (stereo unspecified) | 158 |

| SMILES | XC50 [nM] |
| --- | --- |
| CCOC(=O)c1ccc(NC(=O)c2ccccc2C(=O)O)cc1 | 922 |
| COc1ccc2cc(-c3nc(-c4c(Cl)cccc4Cl)[nH]c3-c3ccnc(NCCCN4CCN(C)CC4)c3)ccc2c1 | 708 |
| O=C(Nc1ccncc1)Nc1ccc2c(c1)CCN(C1CCC1)CC2 | 1130 |
| O=C(Nc1cc2cc(-c3ccc(CN4CCCCC4)cc3)ccc2n2cnnc12)NC1CCCC1 | 1520 |
| O=C(NCC1CCN(Cc2ccc3c(c2)OCCO3)C1)c1cc(-c2ccccc2F)cs1 (stereo unspecified) | 1020 |
| COc1cc2nc(Cl)nc(Nc3ccncc3)c2cc1OC | 1210 |
| Cc1ccc(O)cc1Nc1ccnc2ccc(-c3cccc(CN(C)C)c3)cc12 | 515 |
| NC1=NC(c2ccccc2)(c2ccccc2)C(=O)N1C1CCCCC1 | 661 |
| CC(=O)Nc1sc(C)c(C)c1CN1CCc2ccccc2C1 | 616 |
| COc1cccc(C2(C)CCN(CCCCNC(=O)c3ccc(NC(=O)c4ccc(Cl)cc4)cc3)CC2)c1 | 831 |
| CCCc1cc(C(=O)N[C@@H](Cc2ccccc2)[C@H](O)CNC2CCOCC2)c(F)c(N2CCCCS2(=O)=O)c1 | 166 |
| CCCCCCCN(CCCCCCC)CCNc1cc(C)nc2ccccc12 | 339 |
| CN1CCN(c2ccnc3ccc(NC(=O)Cc4ccc5ccccc5c4)cc23)CC1 | 759 |
| O=C(Nc1nccs1)c1cn(-c2ccccc2)nc1-c1ccc(Cl)s1 | 970 |
| COc1cccc(OCC2CCCN(CCCCNC(=O)c3ccc(NC(=O)c4ccc(Cl)cc4)cc3)C2)c1 (stereo unspecified) | 748 |
| COc1ccc(CC(=O)Nc2ccc(Nc3nc(C)cc(N4CCCC4)n3)cc2)cc1 | 1110 |
| COc1cc(Nc2nccc(Nc3ccc4c(C)n[nH]c4c3)n2)cc2ccccc12 | 699 |
| COc1ccc(-c2nc(NC(=O)Cc3cccc(OC)c3)sc2C)cc1 | 237 |
| CC(C)CCNc1nc(NCCc2ccccc2)c2cc(O)ccc2n1 | 238 |
| O=C(c1ccc(Br)o1)N1N=C(c2cccs2)CC1c1ccc(Br)cc1 (stereo unspecified) | 513 |
| COc1cc2c(cc1C(F)(F)F)N(C(=O)Nc1cccc(-c3ccc(CN(C)C)cc3)c1)CC2 | 710 |
| CS(=O)(=O)NCCCNCc1cccc(-c2ccc(-c3nc4ccccc4[nH]3)s2)c1 | 1080 |
| Cc1ccc(F)c(NC(=O)c2c(-c3c(F)cccc3Cl)noc2C)c1 | 934 |
